Experimental data from patent US9758494B2, “N-(oxazol-2-yl)-aryl-carboxylic acid amides and use thereof as herbicides” (BAYER CROPSCIENCE AG, priority 2012, dated 2017).

Legend:
Type in all cases: in vivo
[1] = system: Avena fatua; experiment: Pre-emergence herbicidal action
Source text: (§1) Seeds of monocotyledonous and dicotyledonous weed plants and crop plants are laid out in wood-fiber pots in sandy loam and covered with soil. The compounds according to the invention, formulated in the form of wettable powders (WP) or as emulsion concentrates (EC), are then applied to the surface of the soil cover in the form of an aqueous suspension or emulsion at a water application rate equating to 600 to 800 l/ha, with addition of 0.2% wetting agent. After the treatment, the pots are placed in a greenhouse and kept under good growth conditions for the test plants. The damage to the test plants is assessed visually after a test period of 3 weeks by comparison with untreated controls (herbicidal activity in percent (%): 100% activity=the plants have died, 0% activity=like control plants). Here, for example, compounds No. 1-163, 1-171, 1-172, 1-283, 1-284, 1-294, 1-295, 1-334, 10-001 and 11-343, at an application rate of 320 g/ha, have an activity of at least 80% against Veronica persica.
(§2) In the tables below, the properties of the compounds according to the invention are compared to those of the structurally most similar compounds known from WO 2012/028579 A1. These tests were carried out by the pre- and post-emergence method under the conditions mentioned under item 1 and item 2. Here, the herbicidal activity against various harmful plants and the damage of some important crop plants were compared at different dosages.

[2] = system: Brassica napus (Oilseed Rape); experiment: Post-emergence, damage of crop plants
Protocol: (§3) Seeds of monocotyledonous and dicotyledonous weed plants and crop plants are laid out in wood fiber pots in sandy loam, covered with soil and cultivated in a greenhouse under good growth conditions. 2 to 3 weeks after sowing, the test plants are treated at the one-leaf stage. The compounds according to the invention, formulated in the form of wettable powders (WP) or as emulsion concentrates (EC), are then sprayed onto the green parts of the plants in the form of an aqueous suspension or emulsion at a water application rate equating to 600 to 800 l/ha, with addition of 0.2% wetting agent. After the test plants have been left to stand in the greenhouse under optimal growth conditions for about 3 weeks, the action of the preparations is assessed visually in comparison to untreated controls (herbicidal action in percent (%): 100% activity=the plants have died, 0% activity=like control plants). Here, for example, compounds No. 1-163, 1-171, 1-172, 1-173, 1-254, 1-283, 1-284, 1-293, 1-294 and 1-334, at an application rate of 80 g/ha, have an activity of at least 80% against Abutilon theophrasti and Amaranthus retroflexus.
as §2

[3] = system: Lolium multiflorum; experiment: Pre-emergence herbicidal action
Source text: as §1, §2

[4] = system: Polygonum convolvulus; experiment: Pre-emergence herbicidal action
Source text: as §1, §2

[5] = system: Oryza sativa (Rice); experiment: Post-emergence, damage of crop plants
Protocol: as §3, §2

[6] = system: Cyperus serotinus; experiment: Post-emergence herbicidal action; details: Dosage 80/ha (Table Q)
Protocol: as §3, §2

[7] = system: Lolium multiflorum; experiment: Post-emergence herbicidal action
Protocol: as §3, §2

[8] = system: Brassica napus (Oilseed Rape); experiment: Pre-emergence, damage of crop plants
Source text: as §1, §2

[9] = system: Oryza sativa (Rice); experiment: Pre-emergence, damage of crop plants
Source text: as §1, §2

[10] = system: Zea mays (Corn); experiment: Pre-emergence, damage of crop plants; details: Dosage 320/ha (Table G)
Source text: as §1, §2

[11] = system: Triticum aestivum (Wheat); experiment: Post-emergence, damage of crop plants
Protocol: as §3, §2

[12] = system: Zea mays (Corn); experiment: Post-emergence, damage of crop plants
Protocol: as §3, §2

[13] = system: Pharbitis purpureum; experiment: Post-emergence herbicidal action; details: Dosage 20/ha (Table S)
Protocol: as §3, §2

[14] = system: Triticum aestivum (Wheat); experiment: Pre-emergence, damage of crop plants
Source text: as §1, §2

[15] = system: Setaria viridis; experiment: Post-emergence herbicidal action
Protocol: as §3, §2

[16] = system: Alopecurus myosuroides; experiment: Pre-emergence herbicidal action; details: Dosage 320/ha (Table D)
Source text: as §1, §2

[17] = system: Alopecurus myosuroides; experiment: Post-emergence herbicidal action; details: Dosage 80/ha (Table P)
Protocol: as §3, §2

[18] = system: Avena fatua; experiment: Post-emergence herbicidal action; details: Dosage 80/ha (Table P)
Protocol: as §3, §2

[19] = system: Echinochloa crus galli; experiment: Pre-emergence herbicidal action; details: Dosage 80/ha (Table H)
Source text: as §1, §2

[20] = system: Matricaria inodora; experiment: Pre-emergence herbicidal action; details: Dosage 80/ha (Table H)
Source text: as §1, §2

[21] = system: Stellaria media; experiment: Post-emergence herbicidal action; details: Dosage 5/ha (Table T)
Protocol: as §3, §2

[22] = system: Veronica persica; experiment: Post-emergence herbicidal action; details: Dosage 5/ha (Table T)
Protocol: as §3, §2

CCS(=O)(=O)c1ccc(C(=O)Nc2nnnn2C)c(Cl)c1C1=NOC(CC#N)C1 (stereo not shown) [WO 2012/028579, No. 4-268]
Herbicidal activity against AVEFA ([1]; 20 g/ha (Table K)): 0%
Herbicidal activity against AVEFA ([1]; 80 g/ha (Table K)): 0%
Damage of BRSNW ([2]; 5 g/ha (Table W)): 80%
Damage of BRSNW ([2]; 20 g/ha (Table W)): 100%

Cn1nnnc1NC(=O)c1ccc(S(C)(=O)=O)c([S+](C)[O-])c1Cl (stereo not shown) [WO 2012/028579, No. 4-293]
herbicidal activity against harmful plants LOLMU ([3]; Dosage 320/ha (Table F)): 20%
herbicidal activity against harmful plants POLCO ([4]; Dosage 320/ha (Table F)): 20%
damage of crop plants, Crop plant ORYZA ([5]; Dosage 80/ha (Table Q)): 40%
herbicidal activity, Harmful plants CYPES [6]: 40%
herbicidal activity, Harmful plants LOLMU ([7]; Dosage 80/ha (Table Q)): 40%

Cn1nnnc1NC(=O)c1ccc(C(F)(F)F)c([S+](C)[O-])c1Cl (stereo not shown) [WO 2012/028579, No. 4-639]
damage of crop plants BRSNW ([8]; Dosage 320/ha (Table G)): 90%
damage of crop plants ORYZA ([9]; Dosage 320/ha (Table G)): 90%
damage of crop plants ZEAMX [10]: 40%
damage of crop plants, Crop plants ORYZA ([5]; Dosage 20/ha (Table S)): 60%
damage of crop plants, Crop plants TRZAS ([11]; Dosage 20/ha (Table S)): 100%
damage of crop plants, Crop plants ZEAMX ([12]; Dosage 20/ha (Table S)): 80%
herbicidal activity, Harmful plant PHBPU [13]: 40%

CCn1nnnc1NC(=O)c1ccc(C(F)(F)F)c(SC)c1C [WO 2012/028579, No. 5-146]
damage of crop plants BRSNW ([8]; Dosage 80/ha (Table B)): 90%
damage of crop plants ORYZA ([9]; Dosage 80/ha (Table B)): 90%
damage of crop plants TRZAS ([14]; Dosage 80/ha (Table B)): 30%
damage of crop plants BRSNW ([2]; Dosage 80/ha (Table N)): 100%
damage of crop plants ORYZA ([5]; Dosage 80/ha (Table N)): 80%
damage of crop plants TRZAS ([11]; Dosage 80/ha (Table N)): 60%

CCn1nnnc1NC(=O)c1ccc(S(C)(=O)=O)c([S+](C)[O-])c1Cl (stereo not shown) [WO 2012/028579, No. 5-294]
herbicidal activity against harmful plants LOLMU ([7]; Dosage 20/ha (Table R)): 10%
herbicidal activity against harmful plants SETVI ([15]; Dosage 20/ha (Table R)): 0%

Cc1c(C(=O)Nc2nnnn2-c2ccccc2)ccc(S(C)(=O)=O)c1S(C)(=O)=O [WO 2012/028579, No. 6-189]
damage of crop plants, Crop plant BRSNW ([8]; Dosage 320/ha (Table D)): 90%
damage of crop plants, Crop plant ORYZA ([9]; Dosage 320/ha (Table E)): 80%
damage of crop plants, Crop plant TRZAS ([14]; Dosage 320/ha (Table E)): 30%
herbicidal activity, Harmful plant ALOMY [16]: 0%
herbicidal activity, Harmful plant LOLMU ([3]; Dosage 320/ha (Table E)): 70%
herbicidal activity, Harmful plant POLCO ([4]; Dosage 320/ha (Table E)): 0%
herbicidal activity against harmful plants ALOMY [17]: 0%
herbicidal activity against harmful plants AVEFA [18]: 0%
herbicidal activity against harmful plants LOMU ([7]; Dosage 80/ha (Table P)): 0%
herbicidal activity against harmful plants SETVI ([15]; Dosage 80/ha (Table P)): 20%

CCS(=O)(=O)c1ccc(C(=O)Nc2nnnn2-c2ccccc2)c(Cl)c1C1=NOC(CC#N)C1 (stereo not shown) [WO 2012/028579, No. 6-268]
Herbicidal activity against AVEFA ([1]; 20 g/ha (Table L)): 0%
Herbicidal activity against AVEFA ([1]; 80 g/ha (Table L)): 0%
Damage of BRSNW ([2]; 20 g/ha (Table X)): 20%
Damage of BRSNW ([2]; 80 g/ha (Table X)): 60%

Cn1ncnc1NC(=O)c1ccc(C(F)(F)F)nc1Cl [WO 2012/028579, No. 8-9]
herbicidal activity against harmful plants ECGCG [19]: 0%
herbicidal activity against harmful plants MATIN [20]: 60%
herbicidal activity against harmful plants STEME [21]: 10%
herbicidal activity against harmful plants VERPE [22]: 60%

Cn1nnnc1NC(=O)c1ccc(C(F)(F)F)nc1Cl [WO 2012/028579, No. 8-10]
Damage of ORYZA ([9]; 20 g/ha (Table I)): 50%
Damage of ORYZA ([9]; 80 g/ha (Table I)): 90%
damage of crop plants ORYZA ([5]; Dosage 80 g/ha (Table U)): 90%
damage of crop plants ZEAMX ([12]; Dosage 80 g/ha (Table U)): 90%
